The text below walks through data of patent publication US8901305B2, “Aryl lactam kinase inhibitors” (Bristol-Myers Squibb Company, priority 2012, dated 2014).

Molecules are shown by their SMILES. pIC50: −log10 of the molar value.

One test addresses T1, GST-Xa-hAAK1 (Homo sapiens, UniProt Q2M2I8).
T1 construct: made in house
Nature of the test: AAK1 kinase assay. The format is biochemical. To be noted: ATP 22 μM, 3 hours at room temperature. The method, then: The assays were performed in U-bottom 384-well plates. […] The reactions were initiated by the combination of bacterially expressed, GST-Xa-hAAK1 with substrates and test compounds. The reactions were incubated at room temperature for 3 hours and terminated by adding 60 μl of 35 mM EDTA buffer to each sample. The reactions were analyzed on the Caliper LabChip 3000 (Caliper, Hopkinton, Mass.) by electrophoretic separation of the fluorescent substrate and phosphorylated product. […] Compounds were dissolved at 10 mM in dimethylsulfoxide (DMSO) and evaluated at eleven concentrations. IC50 values were derived by non-linear regression analysis.

Test [1] has as its target T2, AAK1 (full length human) with AP2M1 in HEK293F cells (Homo sapiens, UniProt Q2M2I8).
T2 construct: expressed in transfected cells; host or cells: HEK293F
Nature of the test: HEK281 cell-based assay (phospho-mu2 Western blot in transfected HEK293F cells). The settings on record: 3 hours, inhibition of mu2 phosphorylation. As to the method: HEK293F cells were cultured in media containing DMEM (Gibco, cat. #11965), 10% FBS (SAFC Biosciences, cat. #12103C), 1×GPS (glutamine, penicillin and streptomycin). On day one, cells were plated on a 10 cm dish so that they are ˜80% confluent at time of transfection. Roughly 12 million cells were in a 10 cm dish at time of transfection. On day two, each dish was transfected with 48 ug DNA and 144 ul Lipofectamine 2000 (Invitrogen, cat. #11668-019). The DNA was comprised of a mixture (per 10 cm dish) containing 3 ug AAK1/HA/pIRES (full length human, NCBI accession no. NP_055726.2), 45 μg Flag/AP2MI/pcDNA (full length human), and 1.5 ml OPTI-MEM. The Lipofectamine 2000 is made up of a mixture (per 10 cm dish) containing 144 μl Lipofectamine 2000 and 1.5 ml OPTI-MEM. Each mixture was transferred to individual 15 ml tubes and incubated at RT for 5 minutes, and then the two mixes were combined and incubated at RT for 20 minutes. Growth media was then aspirated from each 10 cm plate and replaced with 10 ml of DMEM+10% FBS (no GPS). Finally, 3 ml DNA/Lipofectamine mix was added to each 10 cm dish and mix gently followed by incubate of plate overnight at 37° C. and 5% CO2.
On day three, compounds were diluted in 100% DMSO at 1000× final concentration, followed by 3-fold serial dilutions for a total of 5 concentrations tested. Four compounds were tested per 10 cm dish. One ul of each compound dilution was then pipetted into a deep-well, 96-well plate, followed by addition of 500 μl DMEM+0.5% FBS into each well for a 2× final concentration of each compound. Cells were resuspended in a 10 cm dish by simple pipetting (HEK293 cells come off the plate that easy at this point) and then transferred to a 50 ml conical tube and pelleted by centrifugation at 1000 rpm for 5 min. Cell pellets were then resuspended in 2.75 ml DMEM+0.5% FBS per 10 cm dish and 100 μl of cell suspension transferred into each well of 96-well TC plate. Finally, 100 μl of 2× compound diluted in DMEM+0.5% FBS was then added into wells containing cell suspension for a 1× final concentration. Plates were then incubated at 37° C. and 5% CO2 for 3 hours followed by transferring of cell suspensions from each well into 12-tube PCR strips. The PCR strips were spun in a tip rack at 1000 rpm for 5 minutes to pellet cells and media was then removed by pipetting without disturbing the cell pellet.
To prepare for Western Blot analysis, cell pellets were resuspend in 40 ul 1×LDS-PAGE sample buffer (Invitrogen, cat. # NP0008)+2× Halt phosphatase and protease inhibitor cocktail (Thermo Scientific, cat. #1861284), followed by sonicating each with microtip sonicator set at 5 for 8-10 seconds. Five ul of 10× NuPage Sample Reducing Agent (with […]) was to each sample followed by heat denaturing at 70 C for 10 min on PCR machine. A total of 10 μl per sample was loaded into each lane of a 4-20% Tris-Glycine Criterion 26-well gel (Biorad, cat. #345-0034) for the phospho-mu2 blot and 10 μl per lane in a 4-12% Bis-Tris (+MES buffer) NuPAGE 26-well gel (Invitrogen, cat. # WG1403BX10) for the mu2 blot. For controls, 2 ng of phospho-mu2 or 20 ng mu2/Flag proteins were loaded in the last well of each gel. After SDS-PAGE, samples on each gel were transferred to PVDF membrane using an iBlot and membranes were blocked for one hour in TBST+5% milk, followed by wash 3× for 5-10 min with TBST. Criterion gels were probed with rabbit anti-phospho-mu2 (1:5000; a rabbit polyclonal antibody produced by New England Peptide and affinity purified at Lexicon) in TBST+5% BSA, whereas, NuPAGE gels were probed with mouse anti-Flag (1:500; Sigma, cat. # F1804) in TBST+5% milk, and these primary antibodies were incubated overnight at 4° C. on a rocker. […]

T1 sequence (Q2M2I8 whole entry): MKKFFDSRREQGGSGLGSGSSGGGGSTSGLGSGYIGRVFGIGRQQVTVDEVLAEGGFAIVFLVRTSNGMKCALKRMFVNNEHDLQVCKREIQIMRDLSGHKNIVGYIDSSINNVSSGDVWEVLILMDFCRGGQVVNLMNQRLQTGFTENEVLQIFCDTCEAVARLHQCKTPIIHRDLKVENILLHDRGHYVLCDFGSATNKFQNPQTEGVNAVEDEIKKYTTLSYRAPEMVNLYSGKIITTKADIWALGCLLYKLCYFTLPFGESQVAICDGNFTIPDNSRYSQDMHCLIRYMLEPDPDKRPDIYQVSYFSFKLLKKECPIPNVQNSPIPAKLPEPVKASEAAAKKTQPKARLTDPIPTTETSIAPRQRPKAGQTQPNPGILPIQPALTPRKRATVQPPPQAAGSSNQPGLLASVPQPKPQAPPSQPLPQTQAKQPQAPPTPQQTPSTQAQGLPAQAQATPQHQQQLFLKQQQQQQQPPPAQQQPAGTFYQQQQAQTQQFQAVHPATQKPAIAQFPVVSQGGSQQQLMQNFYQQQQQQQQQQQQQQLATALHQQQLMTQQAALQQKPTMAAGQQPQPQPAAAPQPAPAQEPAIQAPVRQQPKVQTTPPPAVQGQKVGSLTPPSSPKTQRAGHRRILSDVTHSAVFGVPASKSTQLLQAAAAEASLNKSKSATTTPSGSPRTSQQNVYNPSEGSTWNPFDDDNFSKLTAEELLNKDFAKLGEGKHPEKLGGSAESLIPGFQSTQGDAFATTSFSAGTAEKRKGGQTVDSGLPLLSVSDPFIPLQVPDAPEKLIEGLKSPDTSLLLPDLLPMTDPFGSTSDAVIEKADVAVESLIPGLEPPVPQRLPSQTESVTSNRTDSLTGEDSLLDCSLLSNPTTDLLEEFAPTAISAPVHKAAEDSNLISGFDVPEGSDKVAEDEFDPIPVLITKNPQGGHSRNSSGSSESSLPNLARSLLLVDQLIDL
T2 sequence (Q2M2I8 whole entry): as above

Usually pIC50 stands for the negative decadic logarithm of the IC50, by convention in mol/L. In the case of `Cc1nccc2c1c(=O)n(C)c1cc(OC(C)[C@@H](N)CC(C)C)ccc21` (mixture of isomers) [Example 33, 8-(((2S,3S)-3-amino-5-methylhexan-2-yl)oxy)-4,6 dimethylbenzo[c][2,7]naphthyridin-5(6H)-one], the negative logarithm of the IC50 (pIC50) is 7.00 to 8.00 on GST-Xa-hAAK1 (given as IC50 range) and 7.96 in test [1]. For the compound `Cc1nccc2c1c(=O)n(C)c1cc(OC[C@](C)(N)CC(C)C)ccc21` (single isomer, unassigned) [Example 37], the pIC50 on GST-Xa-hAAK1 was 8.41; in test [1] (given as IC50 range), 7.00 to 8.00.

In turn, `Cc1cc2c3ccncc3c(=O)n(C)c2cc1OC[C@@H](N)CC(C)C` [Example 4, (S)-8-((2-amino-4-methylpentyl)oxy)-6,9-dimethylbenzo[c][2,7]naphthyridin-5(6H)-one] showed a pIC50 in test [1] of 8.62. Still for that read-out and setting: with `CC(C)C[C@H](N)COc1cc2c(cc1C#N)c1ccncc1c(=O)n2C` [Example 5, (S)-8-((2-amino-4-methylpentyl)oxy)-6-methyl-5-oxo-5,6 dihydrobenzo[c][2,7]naphthyridine-9-carbonitrile] the figure was 8.60; with `CC(C)C[C@H](N)COc1c(Cl)cc2c3ccncc3c(=O)n(C)c2c1Cl` [Example 10, (S)-8-((2-amino-4-methylpentyl)oxy)-7,9-dichloro-6-methylbenzo[c][2,7]naphthyridin-5(6H)-one], 7.54. Same read-out and setting: the same measure for `Cc1nccc2c1c(=O)n(C)c1cc(OC[C@@H](N)CC(C)C)c(C(F)F)cc21` [Example 27, (S)-8-((2-amino-4-methylpentyl)oxy)-9-(difluoromethyl)-4,6-dimethylbenzo[c][2,7]naphthyridin-5(6H)-one]: 9.52; for `CC(C)C[C@H](N)COc1cc2c(cc1Cl)c1ccncc1c(=O)n2C` [Example 43, (S)-8-((2-amino-4-methylpentyl)oxy)-9-chloro-6-methylbenzo[c][2,7]naphthyridin-5(6H)-one]: 8.30; for `Cc1nccc2c1c(=O)[nH]c1cc(OC[C@@H](N)CC(C)C)c(Br)cc12` [Example 49, (S)-8-(2-amino-4-methylpentyloxy)-9-bromo-4-methylbenzo[c][2,7]naphthyridin-5(6H)-one]: 9.22. In test [1] (given as IC50 range), `CN[C@H](COc1cc2c(cc1C#N)c1ccnc(C)c1c(=O)n2C)CC(C)C` [Example 65, (S)-4,6-dimethyl-8-(4-methyl-2-(methylamino)pentyloxy)-5-oxo-5,6-dihydrobenzo[c][2,7]naphthyridine-9-carbonitrile] had a pIC50 of 8.00 to 9.00. Turning to `Cc1cc2c(cn1)c(=O)n(C)c1cc(OC[C@@H](N)CC(C)C)ccc21` [Example 67, (S)-8-((2-amino-4-methylpentyl)oxy)-2,6 dimethylbenzo[c][2,7]naphthyridin-5(6H)-one], the pIC50 on GST-Xa-hAAK1 was 6.05. Regarding `Cc1cc2c(cn1)c(=O)n(C)c1cc(OC[C@@H](N)CC(C)C)c(Cl)cc21` [Example 68, (S)-8-((2-amino-4-methylpentyl)oxy)-9-chloro-2,6-dimethylbenzo[c][2,7]naphthyridin-5(6H)-one], the pIC50 at GST-Xa-hAAK1 (given as IC50 range) is 7.00 to 8.00. Take `COC[C@H](N)COc1ccc2c3ccncc3c(=O)n(C)c2c1` [Example 69, (S)-8-(2-amino-3-methoxypropoxy)-6-methylbenzo[c][2,7]naphthyridin-5(6H)-one]: on GST-Xa-hAAK1 (given as IC50 range), the pIC50 was 7.00 to 8.00. Same read-out and setting: the same measure for `Cc1nccc2c1c(=O)n(C)c1cc(OC[C@@H](N)CC(C)C)c(CO)cc21` [Example 71, (S)-8-(2-amino-4-methylpentyloxy)-9-(hydroxymethyl)-4,6-dimethylbenzo[c][2,7]naphthyridin-5(6H)-one]: 8.00 to 9.00; for `Cc1nccc2c1c(=O)n(C)c1cc(OC[C@@H](N)CC(C)C)c(-n3cccn3)cc21` [Example 74]: 8.00 to 9.00. The same measure, in the same setting: the same measure for `Cc1nccc2c1c(=O)n(C)c1cc(OC[C@@H](N)CC(C)C)c(S(C)(=O)=O)cc21` [Example 76, (S)-8-(2-amino-4-methylpentyloxy)-4,6-dimethyl-9-(methylsulfonyl)benzo[c][2,7]naphthyridin-5(6H)-one]: 5.70 to 7.00. `COCCn1c(=O)c2c(C)nccc2c2ccc(OC[C@@H](N)CC(C)C)cc21` [Example 80, (S)-8-((2-amino-4-methylpentyl)oxy)-6-(2-methoxyethyl)-4-methylbenzo[c][2,7]naphthyridin-5(6H)-one]: the pIC50 at GST-Xa-hAAK1 was 6.87. On the same count and under the same terms, with `Cc1nccc2c1c(=O)[nH]c1c(F)c(OC[C@@H](N)CC(C)C)ccc12` [Example 82, (S)-8-(2-amino-4-methylpentyloxy)-7-fluoro-4-methylbenzo[c][2,7]naphthyridin-5(6H)-one] the figure was 6.82. Regarding `COc1cc2c3ccnc(C)c3c(=O)n(C)c2cc1OC[C@@H](N)CC(C)C` [Example 89, (S)-8-((2-amino-4-methylpentyl)oxy)-9-methoxy-4,6-dimethylbenzo[c][2,7]naphthyridin-5(6H)-one], on GST-Xa-hAAK1 (given as IC50 range), the pIC50 was 8.00 to 9.00.

For the compound `Cc1nccc2c1c(=O)n(C)c1cc(OC[C@@H](N)CC(C)C)c(OC(F)F)cc21` [Example 90, (S)-8-((2-amino-4-methylpentyl)oxy)-9-(difluoromethoxy)-4,6-dimethylbenzo[c][2,7]naphthyridin-5(6H)-one], the pIC50 on GST-Xa-hAAK1 (given as IC50 range) was 7.00 to 8.00. The same measure, in the same setting: with `Cn1c(=O)c2cnccc2c2ccc(OCC(N)CC(F)(F)F)cc21` (stereo not drawn) [Example 93, 8-(2-amino-4,4,4-trifluorobutoxy)-6-methylbenzo[c][2,7]naphthyridin-5(6H)-one] the figure was 7.00 to 8.00; with `CN[C@H](COc1ccc2c3ccnc(C)c3c(=O)n(C)c2c1)CC(C)C` [Example 95, (S)-4,6-dimethyl-8-(4-methyl-2-(methylamino)pentyloxy)benzo[c][2,7]naphthyridin-5(6H)-one], 7.00 to 8.00. Regarding `Cc1nccc2c1c(=O)n(C)c1cc(OC[C@@H](N)CC(C)C)c(C(=O)N(C)C)cc21` [Example 96, (S)-8-((2-amino-4-methylpentyl)oxy)-N,N,4,6-tetramethyl-5-oxo-5,6-dihydrobenzo[c][2,7]naphthyridine-9-carboxamide], the pIC50 at GST-Xa-hAAK1 (given as IC50 range) was 5.70 to 7.00. The same measure, in the same setting: with `Cc1nccc2c1c(=O)[nH]c1c(F)c(OC[C@@H](N)CC(C)C)c(Br)cc12` [Example 100, (S)-8-(2-amino-4-methylpentyloxy)-9-bromo-7-fluoro-4-methylbenzo[c][2,7]naphthyridin-5(6H)-one] the figure was 8.00 to 9.00; with `Cc1nccc2c1c(=O)[nH]c1cc(OCC(C)(N)CC(C)C)c(F)cc12` (stereo not drawn) [Example 102, 8-(2-amino-2,4-dimethylpentyloxy)-9-fluoro-4-methylbenzo[c][2,7]naphthyridin-5(6H)-one], 8.00 to 9.00. On the same count and under the same terms, the same measure for `Cc1nccc2c1c(=O)[nH]c1c(F)c(OCC(C)(N)CC(C)C)ccc12` (stereo not drawn) [Example 105, 8-(2-amino-2,4-dimethylpentyloxy)-7-fluoro-4-methylbenzo[c][2,7]naphthyridin-5(6H)-one]: 7.00 to 8.00.
